Calls of active or inactive are those of the source.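 The calls were made as follows: active = fitted curve reaching 40% activation at or below the top valid dose tested; inconclusive = flat curve at 30 to 70% activation, or poor fit; inactive = the rest.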 A value given as a limit tells only on which side of the number the result lay.

In this test the test system is SK-MEL-5 TRPM1 promoter luciferase reporter, 24 h. Briefly: MITF activators via TRPM1 promoter reporter, dose response, SK-MEL-5 cells, luciferase, cherry-pick samples (AID 540258).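 Also: potency for activators that raise TRPM1 promoter luciferase signal.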
As for `CC(=O)c1ccc(Nc2ccc(-c3ccccc3C)nn2)cc1`, the AC40 was 4200 nM.

`O=C(Nc1ccc2ccccc2c1)c1cc(F)c(F)cc1Cl`: the AC40 was 1860 nM.

As to `O=C(O)c1ccc(/C=C/c2ccc3cccc(O)c3n2)cc1`, the AC40 is 876 nM.

As to `COc1ccc2c(c1OC)C(=O)OC2Nc1nc(-c2cc3cc(Br)ccc3oc2=O)cs1` (stereo unspecified), the AC40 was 915 nM.

As to `CSc1nc(N)n2nc(-c3ccc(Cl)cc3)cc2n1`, the AC40 is 727 nM.

Consider `CN(C)c1ccc(/C=C/c2cccc[n+]2[O-])cc1`, for which the AC40 is 14300 nM.

Regarding `O=C(N=C1N=C2C=CC=CN2Cc2ccccc21)c1ccc(S(=O)(=O)N2CCCC2)cc1`, the AC40 was 30100 nM.

Consider `CN1CCSc2ccc(C(=O)Nc3cc(F)ccc3F)cc21`, for which the AC40 was 465 nM.

As to `Cn1c2ccccc2c(=O)c2cc(C#Cc3ccccn3)ccc21`, the AC40 is > 35000 nM (inactive).

With `Cc1ccc(C(=O)N(CCN2CCCCC2)CC2CCCN(C3CCCC3)C2)s1` (stereo unspecified), the AC40 was 5390 nM.

Take `CN(C(=O)c1cc2sccc2n1C)C1CCCCC1`: the AC40 was > 35000 nM (inactive).

In the case of `c1ccc(-c2noc(COc3ccc4c(c3)OCO4)n2)cc1`, the AC40 was 2250 nM.

For `COc1ccc2c(c1)CC/C(=C\Nc1ccc3c(c1)OCO3)C2=O`, the AC40 is 2300 nM.

Take `COc1ccc(COc2ccc3ccc(=O)oc3c2)cc1`: the AC40 is 1210 nM.

With `COc1ccc(-c2cc(=NCCC(=O)O)c3cc(C)ccc3o2)cc1`, the AC40 was 3330 nM.

As to `O=c1nc(/C=C/c2ccc(O)c(O)c2)oc2ccccc12`, the AC40 is 6320 nM.

For `CC(C)(C)C(=O)c1sc(Nc2ccccc2)nc1N`, the AC40 was 1680 nM.

`Clc1ccccc1OCc1nnc(-c2ccccc2Br)o1`: the AC40 is 2430 nM.

On to `O=c1oc2cc(Cl)ccc2n1CSc1nc2ccccc2s1`, for which the AC40 is 4250 nM.

As for `CSCc1ccc(C(=O)Nc2cc(C)cc(C)c2)cc1`, the AC40 was 2810 nM.

As to `O=C(Oc1ccc2ccccc2c1Cl)N1CCCCCC1`, the AC40 was 557 nM.

As for `CCCc1cc(-c2ccc3c(c2)COc2c4ccccc4nn2-3)on1`, the AC40 was 145 nM.

`O=S(=O)(Cc1cc(-c2ccccc2Cl)no1)c1ccccc1`: the AC40 was 9760 nM.

`Clc1ccc(-c2cc(CSc3ccccc3)on2)cc1`: the AC40 was 1450 nM.

For `COc1ccc(-c2noc(-c3cccc(OC)c3OC)n2)cc1OC`, the AC40 is 1330 nM.

Turning to `CCCCc1ccc(Nc2ncnc3nc[nH]c23)cc1`, the AC40 was 3370 nM.

Consider `O=c1c2c(nc3cc(-c4ccc(Br)cc4)[nH]n13)CCCC2`, for which the AC40 is 286 nM.

Consider `Cc1ccc(NC(=O)Nc2ccc3oc(C)nc3c2)cc1`, for which the AC40 is 1390 nM.

As for `CCCCCc1ccc(-c2ccc(OC)cc2)nc1`, the AC40 was 1380 nM.

With `COc1cc(/C=N/O)ccc1OCc1ccccc1Cl`, the AC40 was 744 nM.

For the compound `O=C(Nc1ccc(Cl)c(Cl)c1)OCc1cccnc1`, the AC40 is 7440 nM.

For `Brc1ccc(OCc2cn3ccccc3n2)cc1`, the AC40 was 592 nM.

In the case of `c1csc(-c2noc(COc3ccc4c(c3)CCCC4)n2)c1`, the AC40 was 2140 nM.

For `Cc1cccc(-c2nc(C#N)c(NC3CCCCC3)o2)c1`, the AC40 was 1290 nM.

Consider `CCCc1ccc(C(=O)NNc2ccccc2F)cc1`, for which the AC40 is 8640 nM.

Regarding `FC(F)(F)c1ccnc(Oc2ccc(C3=NCCS3)cc2)c1`, the AC40 is 654 nM.

Take `CCCC(=O)N1c2ccc(-c3csc(N)n3)cc2CC1C` (stereo unspecified): the AC40 is 1650 nM.

Consider `CCS(=O)(=O)Nc1ccc(C(=O)NCCSc2ccccc2)cc1`, for which the AC40 is 34600 nM.

With `COc1ccc2c(c1)CCc1c(C(=O)NCC(C)C)noc1-2`, the AC40 is 867 nM.

Regarding `Cc1ccc(NC(=O)Nc2ccc3c(c2)N(C)C(=O)CS3)nc1`, the AC40 is 6650 nM.

Turning to `N#C/C(C(=O)N1CCCCC1)=C1\Nc2ccccc2S1`, the AC40 was 5020 nM.

Turning to `COc1ccc2cc(-c3csc(-c4cccnc4)n3)ccc2c1`, the AC40 is 2090 nM.

With `CC(C)(C)c1ccc(-c2noc(-c3ccno3)n2)cc1`, the AC40 was 472 nM.

As to `C=CCc1c(C)nc(-c2ccccc2)nc1N/N=C/c1ccncc1`, the AC40 was 7060 nM.

For `Cc1ccnc(NC(=O)C2CC(=O)N(Cc3ccccc3)C2)c1` (stereo unspecified), the AC40 was 5340 nM.

Consider `CCCN(Cc1ccc(C)cc1)C(=O)c1ccc(CNS(=O)(=O)c2ccc(C(C)=O)cc2)cc1`, for which the AC40 was > 35000 nM (inactive).

Take `CC(=O)c1cnc2nc(SCc3ccccc3)nn2c1C`: the AC40 was 2290 nM.

Regarding `O=C(Nc1ccc2oc(-c3ccccc3)nc2c1)c1cccnc1`, the AC40 is 5220 nM.

On to `O=c1nc2sc3ccccc3n2c(=O)n1-c1ccc(Cl)cc1`, for which the AC40 was 3480 nM.

On to `COc1cccc(N(C(=O)c2nc3nccc(C)n3n2)c2nc3ccccc3s2)c1`, for which the AC40 is 495 nM.

As for `c1ccc2cc(C3CCCCC3)ncc2c1`, the AC40 was 29400 nM.

In the case of `O=C(Nc1ccccc1Cl)c1ccc2nccnc2c1`, the AC40 is 4210 nM.

With `COc1ccc(NC(=O)CN(C)C(=O)CNC(=O)c2sc3ccccc3c2Cl)cc1`, the AC40 was 7780 nM.

Turning to `O=C(Cc1ccccc1)Nc1ccc2c(c1)OC1(CCCC1)O2`, the AC40 was 3230 nM.

`O=C(N/N=C\c1cccc(Cl)c1)c1n[nH]c2c1CCCC2`: the AC40 was 504 nM.

In the case of `CCc1c(C(=O)Nc2ccc(C)c(C)c2)[nH]c(C)c1C(C)=O`, the AC40 is 5170 nM.

Take `CC1CCc2nc(NC(=O)Cc3cccs3)sc2C1` (stereo unspecified): the AC40 is 2630 nM.

As to `O=C(N/N=C/c1ccccc1C(F)(F)F)c1ccc(O)cc1`, the AC40 is 3440 nM.

For the compound `Cc1nc(-c2noc(-c3ccccc3Cl)n2)c(C(F)(F)F)o1`, the AC40 is 11900 nM.

Regarding `COc1ccc(-c2cn(CC3CCCCC3)nn2)cc1`, the AC40 is 3610 nM.

On to `COc1ccc(N=C(C)c2sc3ccccc3c2O)cc1`, for which the AC40 is 1820 nM.

As for `C/C(=N/OC(=O)CC(C)C)c1cc(-c2ccc(Cl)cc2)no1`, the AC40 is 2640 nM.

Regarding `O=C(Nc1ccc2c(c1)CCC2)c1c(F)cccc1Cl`, the AC40 is 1840 nM.

For `Cc1ccc(-c2cc(-c3ccc(C)cc3O)[nH]n2)cc1`, the AC40 was 342 nM.

For `Oc1ccc(Br)cc1/C=N/N1CCCCC1`, the AC40 is 1750 nM.

As for `Cc1nc(C(=O)Nc2ccccc2)sc1C(=O)Nc1ccccc1`, the AC40 was 3890 nM.

As to `CSc1ccc(CNc2ccc(Cl)cc2)cc1`, the AC40 is 5670 nM.

For the compound `CC1CCCC(C)N1C(=O)c1cc(-c2ccc3c(c2)OCO3)on1` (stereo unspecified), the AC40 is 1250 nM.

Consider `Cc1nc2ccc(NC(=O)Cc3c(F)cccc3Cl)cc2s1`, for which the AC40 was 3660 nM.

With `O=C(c1nnc(-c2ccc(Cl)cc2)o1)C1CCCC1`, the AC40 was 10300 nM.

For the compound `Cc1ccc2cc(/C=N/Nc3ccc(C(=O)O)cc3)c(Cl)nc2c1`, the AC40 is 1370 nM.

For the compound `COc1ccc(/C=C2\CCn3c2nc2ccccc2c3=O)cc1OC`, the AC40 is 899 nM.

Consider `Cn1cc(Br)c(C(=O)Nc2sc3c(c2C(N)=O)CCCC3)n1`, for which the AC40 is 10400 nM.

Regarding `O=c1oc(-c2cccs2)nc2sc3c(c12)CCCCC3`, the AC40 was 6420 nM.

On to `Cc1cc2ncc(-c3ccc(Cl)cc3)c(N)n2n1`, for which the AC40 was > 35000 nM (inactive).

In the case of `CCc1ccc(N2Cc3ccccc3C2)cc1`, the AC40 is 2250 nM.

In the case of `COc1cccc2sc3ccc(C#CC4(O)CCCCC4)cc3c(=O)c12`, the AC40 was 2940 nM.

Regarding `Cc1nc(-c2ccc(NC(=O)c3ccccc3Br)cc2)cs1`, the AC40 is 1570 nM.

Turning to `Cc1cccc(NC(=O)c2sc3nc(N)c(C#N)cc3c2N)c1`, the AC40 was 2610 nM.

For `COc1nc(C)ccc1-c1noc(-c2ccncc2)n1`, the AC40 was 2670 nM.

Turning to `O=C(c1ccc(F)cc1)c1ccc(N2CCCCC2)cc1`, the AC40 was 1490 nM.

As for `Cn1c(C(=O)NCCc2c[nH]c3ccccc23)cc2sccc21`, the AC40 is 3400 nM.

On to `Cc1ccn2c(C(=O)c3ccc(Cl)cc3)cnc2c1`, for which the AC40 is 803 nM.

For the compound `CN(c1ccccc1)c1nc2ccsc2c(=O)s1`, the AC40 is 5150 nM.

`COc1cc2c(C)nc3c(cnn3-c3ccccc3)c2cc1OC`: the AC40 is 2870 nM.

Turning to `C/C(=C\c1ccc(N)cc1)c1nc2ccccc2[nH]1`, the AC40 was 1720 nM.

As to `O=c1c2ccccc2oc2cc(NCCCn3ccnc3)ccc12`, the AC40 was 989 nM.

As to `Cc1cccc2nc(COc3ccc4ccccc4c3Br)cn12`, the AC40 was 1270 nM.

Turning to `Cc1ccc(-c2cn(-c3ccccc3)c(=S)[nH]2)cc1C`, the AC40 is 997 nM.

`O=C(O)c1cc(-c2ccc(-c3c(-c4ccc5c(c4)OCO5)noc3-c3ccsc3)cc2)nc2ccccc12`: the AC40 is 20300 nM.

For the compound `COc1cc(/C=C/c2nc3ccccc3c(=O)[nH]2)ccc1OC(F)F`, the AC40 was 980 nM.

Regarding `O=C(Nc1ccccc1O)c1cc2cc(Br)ccc2oc1=O`, the AC40 is 2180 nM.

On to `O=C(Nc1ccc(Cl)c(Cl)c1)Nc1ccccc1O`, for which the AC40 was 982 nM.

Take `N#Cc1ccc(C(=O)NC2CCCCCCC2)cc1`: the AC40 is 3620 nM.

For the compound `Nc1ccc2oc(=O)c3ccccc3c2c1`, the AC40 was 3190 nM.

For the compound `CCN(N=O)c1ccc(C=C2C=Cc3ccccc32)cc1`, the AC40 was 238 nM.

For `O=C(Nc1ccc2c(c1)CCC2)C1CCCN(c2ncccn2)C1` (stereo unspecified), the AC40 is 3540 nM.

With `COc1ccc(C(=S)Nc2ccc(C)cc2)cc1`, the AC40 was 2650 nM.

For `O=C(NCCSc1ccccn1)c1ccc(Cl)cc1Cl`, the AC40 is 959 nM.

`Cc1ccc(CONC(=O)c2ccc(C)cc2)cc1`: the AC40 is 6050 nM.

Regarding `Cc1cc(CN(C)C(=O)c2ccc3nc(Cc4ccccc4F)oc3c2)on1`, the AC40 was 14100 nM.

With `Nc1ccc(-c2nnc(-c3ccc(N)cc3)o2)cc1`, the AC40 was 2450 nM.

Consider `Cc1ccc(C(=O)Oc2cccc(-n3cnnn3)c2)cc1`, for which the AC40 is 4700 nM.

`O=C(NCCc1ccc(O)cc1)c1ccc(Cl)cc1`: the AC40 is 2880 nM.

For the compound `Clc1ccc(N/N=C/c2cccnc2)cc1`, the AC40 is 9360 nM.

With `CCn1c(C(=O)OC)cc2c1ccn2-c1ccc(F)cc1`, the AC40 is 2940 nM.

Turning to `CC(NC(=O)c1cc(COc2ccccc2)on1)c1nccs1` (stereo unspecified), the AC40 is 721 nM.

For the compound `Cc1cc2cc(OCc3ccccc3)ccc2n1C`, the AC40 was 737 nM.

Regarding `CCC(C)NC(=O)c1cc(-c2ccc(OC)cc2)on1` (stereo unspecified), the AC40 was 773 nM.

For the compound `COc1ccccc1Nc1nc(C)cs1`, the AC40 was 22600 nM.

With `COC(=O)C(Cc1ccc(O)cc1)N1Cc2ccccc2C1=O` (stereo unspecified), the AC40 was 5900 nM.

The record behind these values is PubChem BioAssay AID540258 (Broad Institute, 2011).
